Laboratory results: patent US11191754B2, “Inhibitors of nucleotidyl transferases and uses in herpes and hepatitis viral infections therefor” (Saint Louis University, priority 2015, dated 2021)
Where “and” joins values, the source holds several entries; their conditions need not be identical. Identical values can stand only once.

Key:
HSV-1 = assay: Anti-HSV-1 replication assay (virus yield by plaque assay on Vero cells); assay type: cell-based, herpes simplex virus 1 (HSV-1); conditions: for HSV-1 inhibition category: semi-quantitative replication inhibition assay
Method: Vero cells were maintained in Dulbecco's modified Eagle's medium (DMEM) containing 3% newborn calf serum, 3% bovine growth serum, 2 mM L-glutamine and 100 IU/mL penicillin and 0.1 mg/mL streptomycin (P/S). HSV-1 #6 and HSV-2 #1 are de-identified clinical isolates from the Saint Louis University Hospital. Stocks were prepared after a single passage in cell culture and were titered by standard plaque assay (Knipe and Spang, 1982). Wild-type HSV-2 used in FIG. 3 was laboratory strain 333. […] Virus stocks were grown and titered on Vero cells (Morrison and Knipe, 1996).
Compounds to be screened were diluted in PBS supplemented to contain 2% newborn calf serum and 1% glutamine, and added in 100 μL volume to confluent cell monolayers in 24-well cluster plates. Immediately thereafter HSV-1 and HSV-2, diluted in the supplemented PBS medium, were added to the wells in 50 μl volume such that the final concentration of compound was 50 μM, 5 μM and 1 μM and the multiplicity of infection was 0.1. The plates were incubated at 37° C. for 1 hour and then virus-containing inoculum was removed and the wells were washed once in PBS. Compound, diluted to 50 μM, 5 μM and 1 μM in DMEM supplemented to contain 2% newborn calf serum and 1% each penicillin/streptomycin, was added at 0.5 mL/well. Plates were incubated at 37° C. an additional 23 hours, and then the plates were visually inspected through a phase contrast microscope for cytopathic effect, and for toxic effect. The entire contents of each well were collected by scraping. Samples were frozen at −80° C., and then subsequently thawed, sonicated, and infectious virus titer was determined by standard plaque assay on Vero cell monolayers. Because the compounds were dissolved at 10 mM in 100% DMSO, equivalent dilutions of DMSO were added to additional wells as a control for effects of the diluent. Each experiment was repeated once. EC50 values were determined as above except that serial dilutions of the compound to be tested were prepared starting at 50 μM. The inhibitory values were calculated by non-linear curve-fitting in GraphPad Prism.

[1] = system: TK-deficient mutant of HSV-2 strain 333, ΔTK-; assay: Replication of TK-deficient HSV-2 mutant in Vero cells; assay type: cell-based, herpes simplex virus 2 (HSV-2); conditions: 5 μM, 24 h (FIG. 3)
Method: Vero cells were maintained in Dulbecco's modified Eagle's medium (DMEM) containing 3% newborn calf serum, 3% bovine growth serum, 2 mM L-glutamine and 100 IU/mL penicillin and 0.1 mg/mL streptomycin (P/S). HSV-1 #6 and HSV-2 #1 are de-identified clinical isolates from the Saint Louis University Hospital. Stocks were prepared after a single passage in cell culture and were titered by standard plaque assay (Knipe and Spang, 1982). Wild-type HSV-2 used in FIG. 3 was laboratory strain 333. The TK-deficient mutant of HSV-2 strain 333, ΔTK-, contains a 180-bp KpnI-KpnI deletion in the UL23 open reading frame that abrogates TK activity (McDermott, et al, 1984). ΔTK—was the generous gift of Jim Smiley. Virus stocks were grown and titered on Vero cells (Morrison and Knipe, 1996).
ACV is a nucleoside analog prodrug that must be phosphorylated by the viral thymidine kinase (TK) for it to become a substrate for the viral DNA polymerase (Elion, et al., 1977). HSV TK-deficient mutants are therefore insensitive to ACV. […] Vero cells were infected with a laboratory strain of HSV-2 and an engineered TK-deficient mutant of the same strain. […] ACV 5 μM inhibited wild-type HSV-2 replication 100-fold, but it had little effect on the TK-mutant (FIG. 3).

in vitro = assay type: cell-based; conditions: African green monkey
Method: Qualitative assessments of cytotoxicity were done visually by inspecting the cells in the primary screening assays. For the quantitative assays, cells were plated in 96-well plates at 1.0×10^4 per well. The next day the compounds were added at 0.78 to 100 μM in a final concentration of 1% (v/v) DMSO, and the cells were incubated for 24 hours under conditions identical to those employed for the viral replication inhibition assays. Mitochondrial toxicity was measured by incubating the cells with 0.25 mg/mL thiazolyl blue tetrazolium bromide (MTT, SigmaAldrich Chemical Co.), the cultures were incubated for 60 min, metabolites were solubilized in acidic isopropanol, and absorbance was read at 570 nm. CC50 values were calculated by non-linear curve fitting using GraphPad Prism.
A quantitative toxicity measurement was conducted. Toxicity was assessed by measuring release of intracellular proteases into the culture medium due to cellular lysis. Cells were plated in 96-well plates at 1.0×10^4 per well. The next day compound was added in concentrations ranging from 0.78 to 100 μM in a final concentration of 1% (v/v) DMSO. The cells were incubated for 24 hours under conditions identical to those employed for the viral replication inhibition assays, and then […] according to the manufacturer's instructions. […]

Cc1cc(CC(C)CC(C)(C)C)n(O)c(=O)c1 (stereo not drawn) [#191, Piroctone olamine]
HSV-1 inhibition category (HSV-1; 1 μM): intermediate (1 to 3 log10 suppression, which equals 10- to 1,000-fold reduction)
HSV-1 Log10 suppression 1 μM (HSV-1; 1 μM, Vero cells, moi 0.1, 24 h, relative to DMSO control): 2.71 log10
HSV-1 replication inhibition, fold (HSV-1; 5 μM): 4,074 fold
HSV-1 inhibition category (HSV-1; 5 μM): strong (3 to 6 log10 suppression, or 1,000- to 1,000,000-fold reduction)
HSV-1 Log10 suppression 5 μM (HSV-1; 5 μM, Vero cells, moi 0.1, 24 h, relative to DMSO control): 3.61 log10 and 3.53 log10
HSV-1 inhibition category (HSV-1; 50 μM): strong (3 to 6 log10 suppression, or 1,000- to 1,000,000-fold reduction)
HSV-1 Log10 suppression 50 μM (HSV-1; 50 μM, Vero cells, moi 0.1, 24 h, relative to DMSO control): 3.85 log10
inhibition of TK-mutant HSV-2 [1]: efficiently inhibited
CC50 at 24 h (in vitro): > 100 µM
